Test results taken from ChEMBL document CHEMBL1121593, “Synthesis of 2,4-disubstituted 6-methoxy-8-aminoquinoline analogues as potential antiparasitics” (J Med Chem, 1980).

Key:
[1] = system: Mus musculus; assay: Mean survival time which expresses the antimalarial activity of compound was measured against Plasmodium berghei in mice (Mus musculus) at 80 mg/kg dose; type: functional
[2] = system: Mus musculus; assay: (§1) Mean survival time which expresses the antimalarial activity of compound was measured against Plasmodium berghei in mice (Mus musculus) at 640 mg/kg dose; type: functional
[3] = system: Mus musculus; assay: Mean survival time which expresses the antimalarial activity of compound was measured against Plasmodium berghei in mice (Mus musculus) a 160 mg/kg dose; type: functional
[4] = system: Mus musculus; assay: Mean survival time which expresses the antimalarial activity of compound was measured against Plasmodium berghei in mice (Mus musculus) at 20 mg/kg dose; type: functional
[5] = system: Mus musculus; assay: (§2) Mean survival time which expresses the antimalarial activity of compound was measured against Plasmodium berghei in mice (Mus musculus) at 320 mg/kg dose; type: functional
[6] = system: Mus musculus; assay: Mean survival time which expresses the antimalarial activity of compound was measured against Plasmodium berghei in mice (Mus musculus) at 40 mg/kg dose; type: functional
[7] = system: Cricetinae gen. sp.; assay: (§3) G index is the relative activity to that of glucantime was measured on Leishmania donovani in hamsters.; type: functional, hamster
[8] = system: Mus musculus; assay: (§4) Mean survival time which expresses the antimalarial activity of compound was measured against Plasmodium berghei in mice (Mus musculus) at 160 mg/kg dose; type: functional
[9] = system: Plasmodium cynomolgi; assay: Radical curative activity in presence of chloroquine against Plasmodium cynomolgi infected Rhesus monkey at 1.3 mg/kg; type: functional
[10] = system: Cricetinae gen. sp.; assay: as §3; type: functional, Cricetulus griseus
[11] = system: Mus musculus; assay: as §4; type: ADME, organism-based; set-up: dose 160 mg/kg; details: in vivo
[12] = system: Mus musculus; assay: as §1; type: ADME, organism-based; set-up: dose 640 mg/kg; details: in vivo
[13] = system: Mus musculus; assay: as §2; type: ADME, organism-based; set-up: dose 320 mg/kg; details: in vivo
[14] = system: Mus musculus; assay: Mean survival time which expresses the antimalarial activity of compound was measured against Plasmodium berghei in mice (Mus musculus) at […] mg/kg dose; type: functional

Row | SMILES | Delta MST [2] [days] | Delta MST [4] [days] | Delta MST [6] [days] | Relative activity [7] | Delta MST [8] [days] | other results
1 | C=Cc1cc(C)c2cc(OC)cc(NC(C)CCCN)c2n1 (centres undefined) | 6.2 | 0 | 0 |  |  | Delta MST [1]: 0.6 days; Delta MST [3]: 0.4 days; Delta MST [5]: 2.2 days
2 | CCc1cc(C)nc2c(NCCCCCCN(CC)CC)cc(OC)cc12 | 4.9 |  | 1.3 | 29.2 | 2.7 | 
3 | CCc1cc(C)nc2c(NC(C)CCCN)cc(OC)cc12 (centres undefined) | 10.3 | 1.7 | 2.3 |  | 5.1 | Delta MST [1]: 3.7 days; Delta MST [5]: 7.7 days
4 | CCc1cc(C)c2cc(OC)cc(NC(C)CCCN)c2n1 (centres undefined) |  |  |  | 8.99 |  | Cured [9]: 90%
5 | CCN(CC)CCCCCCNc1cc(OC)cc2c(C)cc(CCBr)nc12 |  |  | 0.3 |  | 0 | Relative activity [10]: 2.6; Deaths [11]: 5; Deaths [12]: 5
6 | CCc1cc(C)c2cc(OC)cc(NCCCCCCN(CC)CC)c2n1 | 0.7 |  | 0.3 | 130 | 0.3 | 
7 | COc1cc(NC(C)CCCN)c2ncccc2c1 (centres undefined) [PRIMAQUINE] |  | 4 | 5 | 2.1 |  | Deaths [11]: 2; Deaths [13]: 5; Deaths [12]: 5; Delta MST [14]: 9.4 days
